# Source: PubChem BioAssay (NCI)
#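 Values below derive from 48-hour exposures of cells grown in 96-well plates, with endpoints linearly interpolated between the two concentrations bracketing the appropriate inhibition level. TGI marks complete inhibition of growth.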 Activity calls are given as the source filed them. Cut-off read from the data, not from the text of the source: active = GI50 below about 0.43 µM; inactive = the rest.
# How the values were obtained:
# Assay in all cases: DTP human tumour cell line panel, 48 h
# A549 NSCLC = system: A549 NSCLC
# SF-295 CNS = system: SF-295 CNS
# SW-620 colon = system: SW-620 colon
# HT29 colon = system: HT29 colon
# TK-10 renal = system: TK-10 renal
# HOP-92 NSCLC = system: HOP-92 NSCLC
# MALME-3M melanoma = system: MALME-3M melanoma
# U251 CNS = system: U251 CNS
# KM20L2 colon = system: KM20L2 colon
# LOX IMVI melanoma = system: LOX IMVI melanoma
# HL-60(TB) leukemia = system: HL-60(TB) leukemia
# EKVX NSCLC = system: EKVX NSCLC
# MOLT-4 leukemia = system: MOLT-4 leukemia
# SR leukemia = system: SR leukemia
# SF-268 CNS = system: SF-268 CNS
# M14 melanoma = system: M14 melanoma
# SNB-75 CNS = system: SNB-75 CNS
# OVCAR-8 ovarian = system: OVCAR-8 ovarian
# LXFL 529 NSCLC = system: LXFL 529 NSCLC
# SK-MEL-28 melanoma = system: SK-MEL-28 melanoma
# 786-0 renal = system: 786-0 renal
# ACHN renal = system: ACHN renal
# OVCAR-5 ovarian = system: OVCAR-5 ovarian
# XF 498 CNS = system: XF 498 CNS
# A498 renal = system: A498 renal
# HOP-62 NSCLC = system: HOP-62 NSCLC
# NCI-H460 lung = system: NCI-H460 lung
# SK-OV-3 ovarian = system: SK-OV-3 ovarian
# RPMI-8226 leukemia = system: RPMI-8226 leukemia
# CAKI-1 renal = system: CAKI-1 renal
# SF-539 CNS = system: SF-539 CNS
# K-562 leukemia = system: K-562 leukemia
# OVCAR-4 ovarian = system: OVCAR-4 ovarian
# SNB-19 CNS = system: SNB-19 CNS
# SK-MEL-2 melanoma = system: SK-MEL-2 melanoma
# RXF 393 renal = system: RXF 393 renal
# UACC-257 melanoma = system: UACC-257 melanoma
# SK-MEL-5 melanoma = system: SK-MEL-5 melanoma
# UACC-62 melanoma = system: UACC-62 melanoma
# COLO 205 colon = system: COLO 205 colon
# HCT-116 colon = system: HCT-116 colon
# RXF-631 renal = system: RXF-631 renal
# UO-31 renal = system: UO-31 renal
# M19-MEL melanoma = system: M19-MEL melanoma
# SN12C renal = system: SN12C renal
# HCC-2998 colon = system: HCC-2998 colon
# SNB-78 CNS = system: SNB-78 CNS
# NCI-H23 lung = system: NCI-H23 lung
# OVCAR-3 ovarian = system: OVCAR-3 ovarian
# HCT-15 colon = system: HCT-15 colon
# NCI-H226 lung = system: NCI-H226 lung
# IGROV1 ovarian = system: IGROV1 ovarian
# KM12 colon = system: KM12 colon
# DLD-1 colon = system: DLD-1 colon
# NCI-H522 lung = system: NCI-H522 lung
# DMS 114 small cell lung = system: DMS 114 small cell lung
# CCRF-CEM leukemia = system: CCRF-CEM leukemia
# DMS 273 small cell lung = system: DMS 273 small cell lung
smiles,measurement,setting,value
O=C(COc1ccc2c(=O)cc(-c3ccc(Cl)cc3)oc2c1)N1CCN(c2ccccc2)CC1,TGI,A549 NSCLC,> 100 µM
same,TGI,SF-295 CNS,> 100 µM
same,TGI,SW-620 colon,> 100 µM
same,TGI,HT29 colon,> 100 µM
same,TGI,TK-10 renal,> 100 µM
same,TGI,HOP-92 NSCLC,> 100 µM
same,TGI,MALME-3M melanoma,> 100 µM
same,TGI,U251 CNS,> 100 µM
same,TGI,KM20L2 colon,> 100 µM
same,TGI,LOX IMVI melanoma,> 100 µM
same,TGI,HL-60(TB) leukemia,> 100 µM
same,TGI,EKVX NSCLC,> 100 µM
same,TGI,MOLT-4 leukemia,> 100 µM
same,TGI,SR leukemia,> 100 µM
same,TGI,SF-268 CNS,> 100 µM
same,TGI,M14 melanoma,> 100 µM
same,TGI,SNB-75 CNS,> 100 µM
same,TGI,OVCAR-8 ovarian,> 100 µM
same,TGI,LXFL 529 NSCLC,> 100 µM
same,TGI,SK-MEL-28 melanoma,> 100 µM
same,TGI,786-0 renal,> 100 µM
same,TGI,ACHN renal,> 100 µM
same,TGI,OVCAR-5 ovarian,> 100 µM
same,TGI,XF 498 CNS,> 100 µM
same,TGI,A498 renal,> 100 µM
same,TGI,HOP-62 NSCLC,> 100 µM
same,TGI,NCI-H460 lung,> 100 µM
same,TGI,SK-OV-3 ovarian,> 100 µM
same,TGI,RPMI-8226 leukemia,> 100 µM
same,TGI,CAKI-1 renal,> 100 µM
same,TGI,SF-539 CNS,> 100 µM
same,TGI,K-562 leukemia,> 100 µM
same,TGI,OVCAR-4 ovarian,> 100 µM
same,TGI,SNB-19 CNS,> 100 µM
same,TGI,SK-MEL-2 melanoma,> 100 µM
same,TGI,RXF 393 renal,> 100 µM
same,TGI,UACC-257 melanoma,> 100 µM
same,TGI,SK-MEL-5 melanoma,> 100 µM
same,TGI,UACC-62 melanoma,> 100 µM
same,TGI,COLO 205 colon,> 100 µM
same,TGI,HCT-116 colon,> 100 µM
same,TGI,RXF-631 renal,> 100 µM
same,TGI,UO-31 renal,> 100 µM
same,TGI,M19-MEL melanoma,> 100 µM
same,TGI,SN12C renal,> 100 µM
same,TGI,HCC-2998 colon,> 100 µM
same,TGI,SNB-78 CNS,> 100 µM
same,TGI,NCI-H23 lung,> 100 µM
same,TGI,OVCAR-3 ovarian,> 100 µM
same,TGI,HCT-15 colon,> 100 µM
same,TGI,NCI-H226 lung,> 100 µM
same,TGI,IGROV1 ovarian,> 100 µM
same,TGI,KM12 colon,> 100 µM
same,TGI,DLD-1 colon,> 100 µM
COC(=O)C1(COCc2ccccc2)CCCC2OC21 (stereo not drawn),outcome,A549 NSCLC,inactive
same,outcome,NCI-H522 lung,inactive
same,outcome,SF-295 CNS,inactive
same,outcome,SW-620 colon,inactive
same,outcome,HT29 colon,inactive
same,outcome,HOP-92 NSCLC,inactive
same,outcome,MALME-3M melanoma,inactive
same,outcome,U251 CNS,inactive
same,outcome,KM20L2 colon,inactive
same,outcome,LOX IMVI melanoma,inactive
same,outcome,HL-60(TB) leukemia,inactive
same,outcome,DMS 114 small cell lung,inactive
same,outcome,EKVX NSCLC,inactive
same,outcome,MOLT-4 leukemia,inactive
same,outcome,SR leukemia,inactive
same,outcome,SF-268 CNS,inactive
same,outcome,M14 melanoma,inactive
same,outcome,SNB-75 CNS,inactive
same,outcome,OVCAR-8 ovarian,inactive
same,outcome,LXFL 529 NSCLC,inactive
same,outcome,786-0 renal,inactive
same,outcome,ACHN renal,inactive
same,outcome,OVCAR-5 ovarian,inactive
same,outcome,XF 498 CNS,inactive
same,outcome,HOP-62 NSCLC,inactive
same,outcome,NCI-H460 lung,inactive
same,outcome,SK-OV-3 ovarian,inactive
same,outcome,RPMI-8226 leukemia,inactive
same,outcome,CAKI-1 renal,inactive
same,outcome,SF-539 CNS,inactive
same,outcome,K-562 leukemia,inactive
same,outcome,OVCAR-4 ovarian,inactive
same,outcome,SNB-19 CNS,inactive
same,outcome,SK-MEL-2 melanoma,inactive
same,outcome,CCRF-CEM leukemia,inactive
same,outcome,RXF 393 renal,inactive
same,outcome,UACC-257 melanoma,inactive
same,outcome,UACC-62 melanoma,inactive
same,outcome,COLO 205 colon,inactive
same,outcome,HCT-116 colon,inactive
same,outcome,RXF-631 renal,inactive
same,outcome,DMS 273 small cell lung,inactive
same,outcome,UO-31 renal,inactive
same,outcome,M19-MEL melanoma,inactive
same,outcome,SN12C renal,inactive
same,outcome,HCC-2998 colon,inactive
same,outcome,SNB-78 CNS,inactive
same,outcome,NCI-H23 lung,inactive
same,outcome,OVCAR-3 ovarian,inactive
same,outcome,HCT-15 colon,inactive
same,outcome,NCI-H226 lung,inactive
same,outcome,IGROV1 ovarian,inactive
same,outcome,KM12 colon,inactive
same,outcome,DLD-1 colon,inactive
